Measurements from article PMC12876990, “Targeting secreted PLA2 interactions with EGFR and vimentin to arrest prostate tumour growth” (Cell Death & Disease, 2025).
Square brackets hold non-standard residues; d marks the D form. Peptide text beside a SMILES is read from it. 2Nal = N[C@@H](Cc1ccc2ccccc2c1)C(=O)O

Legend:
[1] = 28-day oral toxicity study: functional observation; assay type: in vivo, male Sprague Dawley rats; conditions: for Grip strength (mean) Forelimb / Grip strength (mean) Hind limb: week 4
Method: 3.6. Procedure for test item administration […]
intragastric cannula attached to a 3 mL syringe.
3.7. Observation of animals […]
groups: Day 29; recovery groups: Day 43).
(Appendix C Study Data Spreadsheets). […]
report (Appendix C Study Data Spreadsheets). […]
3.7.5. Functional observation […]
s upine drop, grip strength test. […]

[2] = 28-day oral toxicity study: urinalysis; assay type: in vivo, male Sprague Dawley rats
Excerpt: Haematology and Biochemistry).
Urine was collected at the end of the study (on Days 29 and 43 for main and recovery groups, respectively) by placing a urine collection tube at the opening of the urethra and any urine expressed by the animal wa s collected. If no urine came out, pressure was gently applied on the bladder area of the abdomen.
Urine was also collected by bladder puncture at the time of death to maximise the volume collected. The animal was placed in lateral recumbency and the abdominal cavity opened. A needle attached to the syringe w as in serted int o the bladder and urine withdrawn with the plunger. The urine sample was expelled from the syringe into the collection tube.
The urine samples were an alysed, individual re su lts are pres ented a s an appendix to the report (Appendix C Study Data Spreadsheets). […]

[3] = system: PCa cell lines LNCaP, PC-3 and DU145; assay: Cell permeability of c2 by live cell confocal imaging of its autofluorescence; assay type: cell-based; conditions: 100 µM, 24 hours
Method: The naphthyl groups in the structure of c2 give the compound a unique autofluorescence emission spectral signature, which was characterised (Fig. S3a, b), allowing the direct imaging of c2 internalisation and localisation. […] Internalisation confirmed via z-stack (Fig. S3c).
For all live cell imaging, cells were seeded on a 24-well glass-bottom Senso plates (Greiner Bio-one) and imaged at 37 °C and 5% CO2 with the LSM 800 (Zeiss). For c2 imaging, cells were incubated with c2 100 µM for 24 hours before excitation with 488 nm and emission 500-700 nm detected. For hGIIA entry, PC-3, LNCaP, DU145 and RA57 hGIIA/AF647 in cells were stained with 30 nM DAPI for 10 mins, cells were washed with PBS and then stained with 1 μg/mL of propidium iodide for 10 mins to confirm cell viability. Cells were washed three times with PBS and then cells were incubated with 200 ng/mL hGIIA/AF647, with entry imaged over 16 hours. Imaging parameters were kept consistent across all time points and cell lines.

[4] = Day 43, Gr 5 recovery, 20 mg/kg

Question: What does the source list for CC(C)C[C@@H]1NC(=O)[C@H](Cc2ccc3ccccc3c2)NC(=O)[C@H](CCCNC(=N)N)NC(=O)[C@H](Cc2ccc3ccccc3c2)NC(=O)[C@H](CO)NC1=O [c2, cyclo-((2-Nal)-Leu-Ser-(2-Nal)-Arg)] (cyclo([2Nal]LS[2Nal]R))?
Answer: functional observations tests ([1]; Week 4): no effect; Grip strength (mean) Forelimb ([1]; Gr 2, 1 mg/kg): 487 ± 33.0; Grip strength (mean) Hind limb ([1]; Gr 2, 1 mg/kg): 59 ± 3.2; Grip strength (mean) Forelimb ([1]; Gr 3, 20 mg/kg): 458 ± 39.9; Grip strength (mean) Hind limb ([1]; Gr 3, 20 mg/kg): 57 ± 2.5; Grip strength (mean) Forelimb ([1]; Gr 5, 20 mg/kg): 456 ± 47.2; Grip strength (mean) Hind limb ([1]; Gr 5, 20 mg/kg): 61 ± 3.8; Urine bilirubin: animals Negative ([2]; Day 29, Gr 2, 1 mg/kg): 8/8; Urine blood: animals Negative ([2]; Day 29, Gr 2, 1 mg/kg): 8/8; Urine glucose: animals Negative ([2]; Day 29, Gr 2, 1 mg/kg): 8/8; Urine ketone: animals Small ([2]; Day 29, Gr 2, 1 mg/kg): 1/8; Urine ketone: animals Trace ([2]; Day 29, Gr 2, 1 mg/kg): 5/8; Urine leucocytes: animals Negative ([2]; Day 29, Gr 2, 1 mg/kg): 8/8; Urine nitrite: animals Negative ([2]; Day 29, Gr 2, 1 mg/kg): 8/8; Urine protein: animals 1+ ([2]; Day 29, Gr 2, 1 mg/kg): 4/8; Urine protein: animals 2+ ([2]; Day 29, Gr 2, 1 mg/kg): 2/8; Urine protein: animals Trace ([2]; Day 29, Gr 2, 1 mg/kg): 2/8; Urobilinogen: animals Normal ([2]; Day 29, Gr 2, 1 mg/kg): 8/8; Urine bilirubin: animals Negative ([2]; Day 29, Gr 3, 20 mg/kg): 9/9; Urine blood: animals Negative ([2]; Day 29, Gr 3, 20 mg/kg): 9/9; Urine glucose: animals Negative ([2]; Day 29, Gr 3, 20 mg/kg): 9/9; Urine ketone: animals Negative ([2]; Day 29, Gr 3, 20 mg/kg): 1/9; Urine ketone: animals Small ([2]; Day 29, Gr 3, 20 mg/kg): 4/9; Urine ketone: animals Trace ([2]; Day 29, Gr 3, 20 mg/kg): 4/9; Urine leucocytes: animals Negative ([2]; Day 29, Gr 3, 20 mg/kg): 9/9; Urine nitrite: animals Negative ([2]; Day 29, Gr 3, 20 mg/kg): 9/9; Urine protein: animals 1+ ([2]; Day 29, Gr 3, 20 mg/kg): 7/9; Urine protein: animals 2+ ([2]; Day 29, Gr 3, 20 mg/kg): 2/9; Urobilinogen: animals Normal ([2]; Day 29, Gr 3, 20 mg/kg): 9/9; urine parameters ([2]; Day 29 and Day 43): no obvious effects; Urine bilirubin: animals Negative [2, 4]: 5/5; Urine blood: animals Negative [2, 4]: 3/5; Urine blood: animals Small [2, 4]: 1/5; Urine blood: animals Trace [2, 4]: 1/5; Urine glucose: animals Negative [2, 4]: 5/5; Urine ketone: animals Negative [2, 4]: 2/5; Urine ketone: animals Trace [2, 4]: 3/5; Urine leucocytes: animals Negative [2, 4]: 5/5; Urine nitrite: animals Negative [2, 4]: 5/5; Urine protein: animals 1+ [2, 4]: 2/5; Urine protein: animals 2+ [2, 4]: 1/5; Urine protein: animals Negative [2, 4]: 2/5; Urobilinogen: animals Normal [2, 4]: 5/5; c2 detection in cells [3]: detected in all cell lines
